Measured values taken from ChEMBL document CHEMBL2203203, “Structure-activity relationships of 2-arylamido-5,7-dihydro-4H-thieno[2,3-c]pyran-3-carboxamide derivatives as cannabinoid receptor agonists and their analgesic action” (Bioorg Med Chem Lett, 2012).
Calls of active or inactive are those of the source.

Legend:
[1] = Half life in rat liver microsomes; type: ADME, Microsome
[2] = target: T1, Cannabinoid receptor 1 (Homo sapiens, UniProt P21554); assay: Agonist activity at human CB1 receptor after 4 hrs by luciferase reporter gene assay; type: functional
[3] = test system: Mus musculus; assay: Analgesic activity in NMRI mouse assessed as inhibition of acetic acid-induced writhing at 30 mg/kg, po measured for 30 mins relative to vehicle-treated control; type: functional; details: for inhibition in vivo at 30 mg/kg: 0.5 h
[4] = target: T2, Cannabinoid receptor 2 (Homo sapiens, UniProt P34972); assay: Agonist activity at human CB2 receptor after 4 hrs by luciferase reporter gene assay; type: functional
[5] = target: T1, Cannabinoid receptor 1; assay: Agonist activity at human CB1 receptor after 4 hrs by luciferase reporter gene assay relative to control; type: functional
[6] = target: T3, Cannabinoid receptor 2 (Rattus norvegicus, UniProt Q9QZN9); assay: Displacement of [3H]-CP55,940 from rat CB2 receptor after 60 mins by microscintillation counting analysis
T3 sequence (Q9QZN9 whole entry): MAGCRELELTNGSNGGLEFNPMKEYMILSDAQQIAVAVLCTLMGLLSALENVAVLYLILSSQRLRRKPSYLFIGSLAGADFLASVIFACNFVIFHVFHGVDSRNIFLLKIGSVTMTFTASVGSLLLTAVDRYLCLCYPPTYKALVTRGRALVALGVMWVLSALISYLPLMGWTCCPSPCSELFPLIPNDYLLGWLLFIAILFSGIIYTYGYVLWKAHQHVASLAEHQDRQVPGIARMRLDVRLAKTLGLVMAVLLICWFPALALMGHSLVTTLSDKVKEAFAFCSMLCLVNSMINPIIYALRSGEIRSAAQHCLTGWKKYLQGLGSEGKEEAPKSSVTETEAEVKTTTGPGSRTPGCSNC

[7] = target: T2, Cannabinoid receptor 2; assay: Displacement of [3H]-CP55,940 from human CB2 receptor after 60 mins by microscintillation counting analysis
[8] = target: T2, Cannabinoid receptor 2; assay: Agonist activity at human CB2 receptor after 4 hrs by luciferase reporter gene assay relative to control; type: functional
[9] = Half life in mouse liver microsomes; type: ADME, Microsome
[10] = target: T1, Cannabinoid receptor 1; assay: Displacement of [3H]-CP55,940 from human CB1 receptor after 60 mins by microscintillation counting analysis
[11] = target: Cannabinoid receptor 1 (Rattus norvegicus, UniProt P20272); assay: Displacement of [3H]-CP55,940 from rat CB1 receptor after 60 mins by microscintillation counting analysis
[12] = species: Homo sapiens; assay: Selectivity ratio of EC50 for human CB1 receptor to EC50 for human CB2 receptor
[13] = target: Cannabinoid receptor 2 (Mus musculus) (UniProt P47936); assay: Agonist activity at mouse CB2 receptor after 4 hrs by luciferase reporter gene assay relative to control; type: functional
[14] = target: Cannabinoid receptor 2 (Mus musculus, UniProt P47936); assay: Agonist activity at mouse CB2 receptor after 4 hrs by luciferase reporter gene assay; type: functional
[15] = Half life in rat at 1 mg/kg, iv; type: ADME, organism-based; design: dose 1 mg/kg, route intravenous; details: in vivo
[16] = Half life in rat at 3 mg/kg, po; type: ADME, organism-based; design: dose 3 mg/kg, route oral; details: in vivo
[17] = Tmax in rat at 3 mg/kg, po; type: ADME, organism-based; design: dose 3 mg/kg, route oral; details: in vivo
[18] = Clearance in rat at 1 mg/kg, iv; type: ADME, organism-based; design: dose 1 mg/kg, route intravenous; details: in vivo
[19] = test system: Rattus norvegicus; assay: Analgesic activity in carrageenan-induced Sprague-Dawley rat allodynia model assessed as increase in paw withdrawal threshold at 10 to 30 mg/kg, po after 90 mins; type: functional, organism-based
[20] = AUC in rat at 1 mg/kg, iv; type: ADME, organism-based; design: dose 1 mg/kg, route intravenous; details: plasma
[21] = test system: Rattus norvegicus; assay: Analgesic activity in carrageenan-induced Sprague-Dawley rat allodynia model assessed as increase in paw withdrawal threshold at 30 to 100 mg/kg, po after 30 mins; type: functional, organism-based
[22] = Volume of distribution at steady state in rat at 1 mg/kg, iv; type: ADME, organism-based; design: dose 1 mg/kg, route intravenous; details: in vivo, read-out: Vdss
[23] = test system: Rattus norvegicus; assay: Analgesic activity in carrageenan-induced Sprague-Dawley rat allodynia model assessed as effect on paw withdrawal threshold at 10 mg/kg, po after 30 mins; type: functional, organism-based; design: dose 10 mg/kg
[24] = Half life in human liver microsomes; type: ADME, Microsome
[25] = Oral bioavailability in rat at 3 mg/kg; type: ADME, organism-based; details: in vivo

T2 sequence (P34972 whole entry): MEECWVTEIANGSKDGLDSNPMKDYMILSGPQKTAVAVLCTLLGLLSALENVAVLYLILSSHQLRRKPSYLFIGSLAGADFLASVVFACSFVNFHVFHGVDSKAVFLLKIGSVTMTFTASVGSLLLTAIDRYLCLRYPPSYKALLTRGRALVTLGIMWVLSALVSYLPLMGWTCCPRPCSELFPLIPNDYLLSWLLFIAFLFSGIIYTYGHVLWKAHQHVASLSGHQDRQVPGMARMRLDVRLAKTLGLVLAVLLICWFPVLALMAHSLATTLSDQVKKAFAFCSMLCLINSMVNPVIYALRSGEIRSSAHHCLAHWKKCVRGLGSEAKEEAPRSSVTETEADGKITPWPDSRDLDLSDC
T1 sequence (P21554 whole entry): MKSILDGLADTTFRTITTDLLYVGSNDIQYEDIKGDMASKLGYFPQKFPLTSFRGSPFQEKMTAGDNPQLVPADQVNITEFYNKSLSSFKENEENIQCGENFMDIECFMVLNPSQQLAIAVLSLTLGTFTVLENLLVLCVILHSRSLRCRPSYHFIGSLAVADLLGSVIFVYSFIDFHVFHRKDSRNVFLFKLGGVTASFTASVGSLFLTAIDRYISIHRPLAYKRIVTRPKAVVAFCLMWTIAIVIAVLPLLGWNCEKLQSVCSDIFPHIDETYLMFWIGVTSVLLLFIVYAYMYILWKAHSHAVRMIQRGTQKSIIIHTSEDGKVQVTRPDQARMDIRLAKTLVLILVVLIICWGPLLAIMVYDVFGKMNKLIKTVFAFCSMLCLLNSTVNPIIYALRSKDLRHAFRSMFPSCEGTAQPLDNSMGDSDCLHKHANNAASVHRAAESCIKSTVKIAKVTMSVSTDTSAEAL
Sequence of Cannabinoid receptor 1 (Rattus norvegicus, UniProt P20272) (P20272 whole entry): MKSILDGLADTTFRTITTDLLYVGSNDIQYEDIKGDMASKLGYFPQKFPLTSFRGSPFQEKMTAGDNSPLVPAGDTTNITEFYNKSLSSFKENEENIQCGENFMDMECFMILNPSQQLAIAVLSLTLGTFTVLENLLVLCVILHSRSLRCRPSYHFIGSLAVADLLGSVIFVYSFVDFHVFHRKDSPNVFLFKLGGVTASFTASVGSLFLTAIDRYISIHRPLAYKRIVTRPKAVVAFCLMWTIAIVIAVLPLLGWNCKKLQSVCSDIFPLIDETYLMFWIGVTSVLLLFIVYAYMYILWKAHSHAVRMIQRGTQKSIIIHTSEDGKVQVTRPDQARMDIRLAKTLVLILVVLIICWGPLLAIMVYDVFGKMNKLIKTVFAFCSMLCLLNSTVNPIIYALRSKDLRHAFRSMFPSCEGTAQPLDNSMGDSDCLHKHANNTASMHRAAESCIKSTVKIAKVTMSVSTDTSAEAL
Sequence of Cannabinoid receptor 2 (Mus musculus) (P47936 whole entry): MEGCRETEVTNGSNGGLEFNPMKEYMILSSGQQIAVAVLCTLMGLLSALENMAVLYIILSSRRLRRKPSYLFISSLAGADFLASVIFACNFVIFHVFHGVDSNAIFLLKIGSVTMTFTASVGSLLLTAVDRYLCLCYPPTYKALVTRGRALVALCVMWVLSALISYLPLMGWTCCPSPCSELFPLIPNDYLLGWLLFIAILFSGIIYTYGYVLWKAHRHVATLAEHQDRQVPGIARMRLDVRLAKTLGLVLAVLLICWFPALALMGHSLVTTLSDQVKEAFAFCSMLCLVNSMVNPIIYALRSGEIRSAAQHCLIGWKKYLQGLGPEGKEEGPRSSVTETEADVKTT
Sequence of Cannabinoid receptor 2 (Mus musculus, UniProt P47936) (P47936 whole entry): as above

| SMILES | half-life [1] | EC50 [2] | EC50 [4] | Efficacy [5] | Ki [6] | Ki [7] | Efficacy [8] | half-life [9] | Ki [10] | Ki [11] | Ratio EC50 [12] | further results |
| --- | --- | --- | --- | --- | --- | --- | --- | --- | --- | --- | --- | --- |
| COCCNC(=O)c1c(NC(=O)c2ccccc2C(F)(F)F)sc2c1CCOC2 | 17.8 min | 8710 nM | 17 nM | 45% | 2540 nM | 999 nM | 93% | 19.8 min | > 30000 nM | > 30000 nM | 525 | inhibition [3]: inactive |
| O=C(Nc1sc2c(c1C(=O)N1CCOCC1)CCCC2)c1ccccc1Cl | – | 251 nM | 10 nM | 77% | – | – | 95% | – | – | – | 25 | Efficacy [13]: 107%; EC50 [14]: 50 nM |
| O=C(Nc1sc2c(c1C(=O)N1CCCCC1)CCOC2)c1ccccc1C(F)(F)F | 5.28 min | 607 nM | 3 nM | 93% | 1610 nM | 241 nM | 99% | 15.5 min | 11700 nM | 15100 nM | 204 | inhibition in vivo at 30 mg/kg [3]: 32% |
| O=C(Nc1sc2c(c1C(=O)N1CC(F)(F)C1)CCOC2)c1ccccc1OC(F)(F)F | 6.4 min | 1970 nM | 4.7 nM | 104% | 4620 nM | 240 nM | 104% | 25.5 min | > 30000 nM | > 30000 nM | 420 | inhibition [3]: inactive |
| O=C(Nc1sc2c(c1C(=O)N1CCOCC1)CCOC2)c1c(Cl)cccc1Cl | – | 4640 nM | 695 nM | 78% | – | – | 76% | – | – | – | 7 | – |
| O=C(Nc1sc2c(c1C(=O)N1CCCCC1)CCOC2)c1ccccc1OC(F)(F)F | 3.52 min | 925 nM | 9.5 nM | 85% | 2130 nM | 347 nM | 101% | 10 min | 19400 nM | 22600 nM | 98 | inhibition [3]: inactive |
| O=C(Nc1sc2c(c1C(=O)N1CC(F)(F)C1)CCOC2)c1c(F)cccc1C(F)(F)F | 14.2 min | 798 nM | 6.5 nM | 83% | 630 nM | 444 nM | 96% | 51.3 min | 11100 nM | 13500 nM | 122 | half-life [15]: 30 min; inhibition in vivo at 30 mg/kg [3]: 38%; half-life [16]: 534 min; Tmax [17]: 60 min; clearance [18]: 102 mL/min/kg; Activity [19]: Active; AUC [20]: 165 ng·h/mL; Activity [21]: Active; Vd [22]: 3.61 L/kg; Activity [23]: inactive; half-life [24]: 25.4 min; bioavailability [25]: 8% |
| Cc1ccccc1C(=O)Nc1sc2c(c1C(=O)N1CCOCC1)CCOC2 | – | 7450 nM | 646 nM | 97% | – | – | 105% | – | – | – | 12 | – |
| COCCNC(=O)c1c(NC(=O)C2CCCC2)sc2c1CCCC2 | – | 8030 nM | 71 nM | 61% | – | – | 81% | – | – | – | 113 | – |
| COCCNC(=O)c1c(NC(=O)c2c(F)cccc2C(F)(F)F)sc2c1CCOC2 | 13.6 min | 9360 nM | 24 nM | 58% | 1700 nM | 904 nM | 96% | 21 min | > 30000 nM | > 30000 nM | 385 | inhibition [3]: inactive |
| CC(C)(C)CC(=O)Nc1sc2c(c1C(=O)N1CCC(F)(F)CC1)CCCC2 | – | 113 nM | 4.7 nM | 86% | – | – | 82% | – | – | – | 24 | – |
| O=C(Nc1sc2c(c1C(=O)N1CCC(F)(F)CC1)CCOC2)c1c(F)cccc1C(F)(F)F | – | 251 nM | 3.6 nM | 94% | – | – | 97% | – | – | – | 71 | – |
| CC1OCc2sc(NC(=O)CC(C)(C)C)c(C(=O)N3CCCCC3)c21 (centres undefined) | – | 1660 nM | 40 nM | 88% | – | – | 91% | – | – | – | 42 | – |
| COC1CN(C(=O)c2c(NC(=O)c3ccccc3C(F)(F)F)sc3c2CCOC3)C1 | 50.4 min | 5960 nM | 15 nM | 53% | 3110 nM | 899 nM | 98% | 37.3 min | > 30000 nM | > 30000 nM | 387 | inhibition in vivo at 30 mg/kg [3]: 15% |
| O=C(Nc1sc2c(c1C(=O)N1CC(F)(F)C1)CCOC2)c1ccccc1C(F)(F)F | 8 min | 296 nM | 2.5 nM | 84% | 594 nM | 81.5 nM | 106% | 37.4 min | 7190 nM | > 30000 nM | 118 | inhibition in vivo at 30 mg/kg [3]: 15% |
| O=C(Nc1sc2c(c1C(=O)N1CCCCC1)CCOC2)c1c(F)cccc1C(F)(F)F | – | 1000 nM | 14 nM | 94% | – | – | 103% | – | – | – | 71 | – |
| O=C(Nc1sc2c(c1C(=O)N1CCC(F)(F)CC1)CCOC2)c1ccccc1C(F)(F)F | – | 80 nM | 1.4 nM | 90% | – | – | 99% | – | – | – | 57 | – |
| CC1OCc2sc(NC(=O)CC(C)(C)C)c(C(=O)N3CC(F)(F)C3)c21 (centres undefined) | – | 217 nM | 6 nM | 94% | – | – | 105% | – | – | – | 36 | – |
